In patent US7994291B2, “Human E3α ubiquitin ligase family” (Amgen Inc., priority 2000, dated 2011):
“Also recorded” adds a separate entry of the source.

Experiments:
[1] = test system: E3α; assay: 125I-ubiquitin conjugation to endogenous muscle proteins in Fraction II of muscle extracts from YAH tumor-bearing rats, with E3α inhibitor; type: biochemical, rat; settings: 10 mM inhibitor, 20 μg/ml bestatin, 37° C., 20 minutes, Fraction II of gastrocnemius muscle extract
Method: The rate of ubiquitin conjugation of the endogenous muscle proteins were carried out as described in Example 10 using the skeletal muscles from the YAH tumor-bearing rats. The frozen gastrocnemius muscles collected (via dissection at sacrifice) from 6 tumor-bearing rats were combined. The muscle extracts (20% weight/volume) were prepared by homogenizing the muscles in a buffer containing 50 mM Tris HCl (pH 8.00), 5 mM MgCl2, 2 mM DTT, protease inhibitor cocktail (Sigma P8340) and 10% glycerol. The homogenates were then centrifuged at 40,000 g for 1 hr and the resulting supernatants were used as crude muscle extracts.
For some assays, the crude muscle extracts were fractionated further by chromatography on DEAE-cellulose (Whatman, Clifton, N.J.) to remove endogenous ubiquitin as described by Soloman et al. (Proc. natl. Acad. Sci. U.S.A., 95: 12602-7, 1998). The bound material Fraction II, which contained most of the ubiquitin conjugating enzymes were eluted with 50 mM Tris, pH 8.0 containing 0.5M NaCl and 1 mM DTT. Both crude extracts and Fraction II were dialyzed prior to use for ubiquitination assay against buffer containing 20 mM Tris, pH 8.0, 2 mM DTT, 5 mM MgCl2, and 10% glycerol and stored at […] until use. Crude muscle extracts were used for ubiquitin conjugation to ^125I-α-lactalbumin. […]

[2] = test system: muE3αII; assay: Northern blot of muE3αII mRNA in cytokine-treated C2C12 myotubes; type: cell-based, mouse; settings: 10 ng/ml cytokine for 3 days and 5 days, differentiated C2C12 myotubes vs untreated
Method: Treatment with the proinflammatory cytokines, TNFα and IL-6, caused the induction of […] in C2C12 myotube cultures. C2C12 myoblasts were cultured in 100-mm dishes in an atmosphere of 5% CO2 at 37° C. in DMEM supplemented with 10% FBS and L-glutamine to reach 100% confluence. Myoblast differentiation was induced with DMEM supplemented with 2% horse serum and L-glutamine for 96 hours. Differentiated myotubes were then treated with TNFα (10 ng/ml; R&D Systems cat no. 210-TA) or IL-6 (10 ng/ml; R&D Systems cat no. 206-IL) for 3 days and 5 days.
After the 3 or 5 day incubation, RNA from differentiated C2C12 cultures was isolated with Trizol Reagent and Northern blot analysis was carried out as described in Example 11. Isolated RNA from untreated C2C12 cultures were used as a control. The blots were hybridized with a ^32P-labeled cDNA probes specific for muE3αI (lower panels) and muE3αII (upper panels). The probes were generated as described in Example 12.

[3] = test system: differentiated C2C12 cells; assay: 125I-ubiquitin conjugation of cellular proteins in cytokine-treated differentiated C2C12 myotubes; type: cell-based, murine
Method: To further substantiate the enzymatic activity of huE3αI and huE3αII, ubiquitin conjugation to endogenous cellular proteins were measured in cultured muscle cell lines. Cultures of murine C2C12 or rat L6 myotube cells (ATCC accession nos. CRL-1772 and CRL-1458, respectively) were transfected with huE3αI or huE3αII full length cDNA under control of the CMV promoter using Lipofectamine 2000 Reagent (Gibco). Mock transfection with the pcDNA3.1 vector without a cDNA insert was performed as a control. Cell lysates were prepared as described above for the 293T cells and the resulting supernatants were used in ubiquitin conjugation reactions. For each reaction, 30 μg of C2C12or L6 myotube cell lysate was incubated with ^125I-ubiquitin (0.15 mg/ml, approximately ×10^7 cpm) in a total volume of 25-30 μl in a buffer containing 50 mM Tris, pH 8.0, 2 mM DTT, 5 mM MgCl2, 2 mM adenosine 5′-[-thio]triphosphate (ATP S), 50 μg/ml ubiquitin aldehyde, 20 μg/ml MG132 and protease inhibitor cocktail (Sigma P8340) at 37° C. for 30 minutes. Reactions were stopped by adding sample buffer and were subjected to 12% SDS PAGE. The gels were then dried and autoradiographed.
C2C12 cells were differentiated for 5 days to allow formation of myotubes. The differentiated myotubes were treated with 2 ng/ml of IL-6 for 5, 24 or 48 hours. […]

Molecule	effect on accelerated muscle protein ubiquitination of tumor-bearing rats [1]	expression of muE3αII mRNA [2]	ubiquination of cellular proteins ([3]; 2 ng/ml IL-6 for 5, 24 or 48 hours, detectable 5 hours post-treatment, time dependent)	125I-ubiquitin conjugation of cellular proteins ([3]; TNFα 0, 3, 6, 10, 20 ng/ml for one hour)
COC(=O)[C@@H](N)CCCNC(=N)N [arginine methylester, arginine methyl ester]	virtually abolished the accelerated ubiquitination activity; also recorded: virtually abolished all the increased ubiquitination activities	–	–	–
IL-6: proinflammatory cytokine (R&D Systems cat no. 206-IL)	–	markedly increased	marked increase	–
TNFα	–	markedly increased	–	dose dependent increase
